In patent publication US11357862B2, “Peptide-conjugated nanoparticles for targeting, imaging, and treatment of prostate cancer” (Academia Sinica, priority 2016, dated 2022):

What was measured:
[1] = Pharmacokinetics of doxorubicin formulations; format: in vivo, NOD/SCID mice; settings: 2 mg doxorubicin/kg, tail vein
Method: Blood samples were drawn at selected time points, and quantities of doxorubicin were analyzed.

[2] = tested on: PC3-Luc orthotopic tumors; assay: Orthotopic implantation and therapeutic study; format: in vivo, SCID mice; settings: doxorubicin 1 mg/kg, vinorelbine 2 mg/kg i.v. twice a week, docetaxel 5 mg/kg i.p. once a week, 4 weeks
Method: PC3 cells were transfected with Lenti-Luc virus (lentivirus containing the luciferase gene), and a stable PC3-Luc cell line was selected by puromycin screening. PC3-Luc cells (5×10^5 cells in 20 μl PBS per mouse) were orthotopically transplanted into the dorsal lobe of the prostate of SCID mice after anaesthesia with Avertin at a dose of 250 mg/kg. Seven days later, all mice bearing tumors were randomly divided into five groups (n=8 per group) based on photon flux indices detected using Xenogen IVIS® 200 Luminal Image. Tumor-bearing mice were treated with different formulations of anti-cancer drugs or PBS. Tumor development was recorded every 7 days. The body weights and survival rates were measured.
Mice were injected with vehicle (PBS), docetaxel (5 mg/kg), liposomal drugs, or targeting liposomal drugs (doxorubicin 1 mg/kg; vinorelbine 2 mg/kg).

[3] = tested on: PC3 prostate cancer xenografts; assay: In vivo phage homing and peptide competitive inhibition; set-up: species or system SCID mice; settings: co-injection with PC204
Method: (§1) SCID mice were injected s.c. with 5×10^6 prostate cancer cells. Once the prostate cancer xenografts reached a suitable size (about 200˜300 mm^3), the mice were injected i.v. with 2×10^9 pfu phages in the presence or absence of 100 μg synthetic peptides. After ten minutes, the mice were sacrificed and perfused with 50 ml PBS to remove unbound phages. Selected organs and xenograft tumors were removed, and the phage titer recovered by E. coli strain ER2738 was measured using IPTG/X-Gal spray. Partial organs and tumors were embedded using optimal cutting temperature compound (O.C.T.) to prepare sections for immunohistochemical staining.

[4] = tested on: DU145 prostate cancer xenografts; assay: as above; set-up: species or system SCID mice; settings: co-injection with PC204
Method: as §1

[5] = tested on: PC3 prostate cancer xenografts; assay: Immunohistochemical localization of phages after i.v. injection; format: in vivo, SCID mice; settings: co-injected with PC204
Method: as §1
The tissue samples from in vivo phage homing experiments were embedded in frozen blocks. Phage distribution in each tissue was assessed by first removing O.C.T. with cold PBS, and then fixing the frozen sections with 4% paraformaldehyde for 10 min. The sections were incubated with 1% BSA for 30 min to block non-specific binding. After washing, the sections were incubated with mouse anti-M13 antibodies at a dilution of 1:250 for 1 hour, followed by treatment with polymer-based SUPER SENSITIVE™ IC detection system. In brief, the sections were incubated with SUPER […]™ reagent for 20 min and poly-HRP reagent for 30 min. DAB was used as a chromogen to visualize peroxidase activity, and the reaction was stopped by the addition of PBS. […]

**Q.** Which “plasma pharmacokinetic profile of doxorubicin” value [1] does the source give for `COc1cccc2c1C(=O)c1c(O)c3c(c(O)c1C2=O)C[C@@](O)(C(=O)CO)C[C@@H]3O[C@H]1C[C@H](N)[C@H](O)[C@H](C)O1` [FD, doxorubicin] here?
**A.** Its value is “poor pharmacokinetic profile”.

**Q.** For `CC(=O)O[C@@]12CO[C@@H]1C[C@H](O)[C@@]1(C)C(=O)[C@H](O)C3=C(C)[C@@H](OC(=O)[C@H](O)[C@@H](NC(=O)OC(C)(C)C)c4ccccc4)C[C@@](O)([C@@H](OC(=O)c4ccccc4)[C@H]21)C3(C)C` [docetaxel], which median survival times [2] is on record?
**A.** The median survival times was 58 days.

**Q.** With “SP204: synthetic targeting peptide KQFSALPFNFYT, SEQ ID NO: 8, the ligand displayed on phage PC204 (Phage clone No. 204 displayed peptide sequence)” as the molecule, how does the “inhibition of PC204 binding to tumor tissue by co-injected peptide” value [3] read?
**A.** The value was 5.2 fold.

**Q.** What about the “inhibition of PC204 binding to tumor tissue by co-injected peptide” value [4] of the same molecule?
**A.** The value was 2.87 fold.

**Q.** What about the “phage immunoreactivity in tumor tissue on co-injection of PC204 with peptide” value [5] of the same molecule?
**A.** Its value is “no immunoreactivity was observed”.
